Where two headings read alike, the source gives them in different places.
Columns and labels:
CREBBP bromodomain [1] = target: T1, CREBBP bromodomain (Homo sapiens, UniProt Q92793); experiment: AlphaScreen peptide displacement assay; type: binding
T1 construct: amplify the bromodomain region of the; made in house
Method: AlphaScreen Peptide Displacement Assay: Bromodomain AlphaScreen assays were carried out as
previously described.11,34 All experiments were carried out in duplicate and, within a table, on the same plate. […]

CREBBP bromodomain [2] = target: T1, CREBBP bromodomain; set-up: method as in PMID 21804994, PMID 21851057; conditions: cited from earlier work
PCAF = target: T2, PCAF (Homo sapiens, UniProt Q92831); experiment: Differential scanning fluorimetry (ΔTm); conditions: read-out: ΔTm PCAF
T2 sequence (Q92831 723-827 limits assumed): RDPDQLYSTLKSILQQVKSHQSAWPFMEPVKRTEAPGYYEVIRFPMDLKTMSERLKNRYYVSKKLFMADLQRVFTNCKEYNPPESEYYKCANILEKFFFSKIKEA

[3] = system: GFP chimerized to multimerized CREBBP bromodomains in U2OS cells; experiment: Fluorescence recovery after photobleaching (FRAP) assay; type: cell-based
Method: To determine the utility of (R)-2 in a cellular setting a FRAP assay was conducted.
The bleached area is indicated by a red circle. B) Half times of fluorescence recovery (t1/2) of U2OS cells expressing green fluorescent protein (GFP) chimerized to multimerized CREBBP bromodomains with or without 2.5 μM SAHA (indicated by †).
CREBBP bromodomain from chromatin. A) Time dependence of fluorescent recovery in the bleached area of U2OS cells expressing GFP chimerised to multimerised CREBBP bromodomains. Curves represent the means at each time point of 15 cells in each group (see Figure 3A for representative images of cell nuclei). B) Half times of fluorescence recovery (t½) of cells expressing GFP chimerised to multimerised CREBBP bromodomains. Bars represent the mean t½ calculated from individual recovery curves of 15 cells per group. * […]
(§1) and entropy of binding respectively).
MicroCal™ Origin software package. […]
crystallization robot (TTP Labtech, Royston UK).
50+100 nl). […] All crystallizations were carried out […]
followed by manual building in COOT42.

CREBBP bromodomain [4] = target: T1, CREBBP bromodomain; experiment: Isothermal titration calorimetry (ITC); type: binding; conditions: 15 °C
Method: (§2) Isothermal Titration Calorimetry (ITC): Experiments were carried out on a VP-ITC titration microcalorimeter from MicroCal™ , LLC (Northampton, MA) with a cell volume of 1.4189 ml and a 250 µl microsyringe equipped with a ThermoVac module.
(§3) The microsyringe was loaded with a solution of the protein sample (200-500 µM protein in ITC buffer) and was carefully inserted into the calorimetric cell which was filled with an amount of the ligand ([…], 20-30 µM in ITC buffer). The system […]
(§4) applied. All titrations were conducted using an initial control injection of 2 µl followed by up to 34 identical injections of 8 µl with a duration of 4 sec per injection and a spacing of 250 sec between injections. The titration experiments were designed in such a fashion, as to ensure complete saturation of the enzymes before […]
(§5) corrected for protein heats of dilution (measured on separate experiments by titrating the proteins into ITC buffer) and deconvoluted using the MicroCal™ Origin software supplied with the instrument to yield enthalpies of binding (∆H) and binding constants (KB) in the same fashion to that previously described in detail by Wiseman and coworkers.35 Thermodynamic parameters were calculated using the basic equation of thermodynamics (∆G = ∆H − T∆S = −RTlnKB, where ∆G, ∆H and ∆S are the changes in free energy, enthalpy […]
as §1
(§6) MicroCal™ Origin software package.

BRD4(1) = BRD4(1) (Homo sapiens, UniProt O60885); experiment: Isothermal titration calorimetry (ITC); type: binding; conditions: 15 °C
Method: as §2, §3, §4, §5, §1, §6

BRPF3 = target: T3, BRPF3 (Homo sapiens, UniProt Q9ULD4); experiment: Differential scanning fluorimetry (ΔTm); conditions: read-out: ΔTm BRPF3
T3 sequence (Q9ULD4 589-693 limits assumed): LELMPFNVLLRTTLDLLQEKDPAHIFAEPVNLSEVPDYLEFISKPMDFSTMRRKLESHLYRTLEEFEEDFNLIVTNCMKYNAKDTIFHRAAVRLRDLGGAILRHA

BAZ2B = target: T4, BAZ2B (Homo sapiens, UniProt Q9UIF8); experiment: Differential scanning fluorimetry (ΔTm); conditions: read-out: ΔTm BAZ2B
T4 sequence (Q9UIF8 2060-2164 limits assumed): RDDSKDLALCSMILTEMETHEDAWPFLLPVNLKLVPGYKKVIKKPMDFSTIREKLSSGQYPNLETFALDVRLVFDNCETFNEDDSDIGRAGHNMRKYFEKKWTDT

LOC93349A = LOC93349A (Homo sapiens, UniProt Q9H930); experiment: Differential scanning fluorimetry (ΔTm); conditions: read-out: ΔTm LOC93349A
Method: (§7) Differential Scanning Fluorimetry: Bromodomain ΔTm assay was performed as reported previously,34 with protein at a final concentration of 2 µM and compound at 10 µM.

TIF1α = target: T5, TIF1α (Homo sapiens, UniProt O15164); experiment: Differential scanning fluorimetry (ΔTm); conditions: read-out: ΔTm TIF1α
T5 sequence (O15164 899-1004 limits assumed): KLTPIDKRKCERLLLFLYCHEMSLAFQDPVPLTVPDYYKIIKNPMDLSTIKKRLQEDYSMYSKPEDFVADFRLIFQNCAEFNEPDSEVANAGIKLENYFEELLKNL

BRD9 = target: T6, BRD9 (Homo sapiens, UniProt Q9H8M2); experiment: Differential scanning fluorimetry (ΔTm); conditions: read-out: ΔTm BRD9
T6 sequence (Q9H8M2 136-240 limits assumed): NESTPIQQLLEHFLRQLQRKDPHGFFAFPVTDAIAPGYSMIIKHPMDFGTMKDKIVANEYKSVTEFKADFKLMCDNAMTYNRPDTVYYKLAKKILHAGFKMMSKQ

PB1(1) = PB1(1) (Homo sapiens, UniProt Q86U86); experiment: Differential scanning fluorimetry (ΔTm); conditions: read-out: ΔTm PB1(1)
Method: as §7

CREBBP = target: T7, CREBBP (Homo sapiens, UniProt Q92793); experiment: Differential scanning fluorimetry (ΔTm); type: binding; conditions: DSF; protein 2 µM, compound 10 µM
T7 construct: amplify the bromodomain region of the; made in house

[5] = peptide and protein concentration = 25 nM, range in parentheses, read-out: IC50/nM vs CREBBP

T1 sequence (Q92793 1085-1192 limits assumed): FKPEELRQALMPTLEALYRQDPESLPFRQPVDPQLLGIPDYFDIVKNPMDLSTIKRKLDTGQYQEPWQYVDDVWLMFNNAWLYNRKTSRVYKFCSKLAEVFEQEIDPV
Sequence of PB1(1) (Q86U86 41-151 limits assumed): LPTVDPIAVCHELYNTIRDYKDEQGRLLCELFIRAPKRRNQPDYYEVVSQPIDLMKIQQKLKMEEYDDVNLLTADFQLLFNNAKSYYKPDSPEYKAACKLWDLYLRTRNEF
Sequence of LOC93349A (Q9H930 467-570 limits assumed): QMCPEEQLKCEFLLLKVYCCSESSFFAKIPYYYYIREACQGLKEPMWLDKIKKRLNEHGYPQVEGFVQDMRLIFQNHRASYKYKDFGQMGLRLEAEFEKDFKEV
T7 sequence (Q92793 1085-1192 limits assumed): as the sequence (Q92793 1085-1192 limits assumed) above

Q: With CC1Oc2c(cccc2C(=O)NCCCN2CCCc3ccccc32)NC1=O (stereo not shown) [compound 4] as the molecule, how does the IC50 (CREBBP bromodomain [1]; read-out: CREBBP IC50) read?
A: Its IC50 is 51000 nM.

Q: For C[C@H]1Nc2c(cccc2C(=O)NCCCN2CCOc3ccccc32)NC1=O [(R)-5], which IC50 (CREBBP bromodomain [1]; [5]) is on record?
A: Its IC50 is 549 nM.

Q: With CN1CCCC1=O [N-methyl-2-pyrrolidone (NMP), N-methyl-2-pyrrolidone] as the molecule, how does the IC50 (CREBBP bromodomain [2]; AlphaScreen) read?
A: The IC50 was 1.9 mM.

Q: And the ligand efficiency (CREBBP bromodomain [2]; from AlphaScreen IC50 vs CREBBP bromodomain)?
A: Its ligand efficiency is 0.54.

Q: For C[C@H]1Nc2c(cccc2C(=O)NCCCN2CCCc3ccccc32)NC1=O [(R)-1], which IC50 (CREBBP bromodomain [1]; [5]) is on record?
A: Its IC50 is 758 nM.

Q: What about the IC50 (CREBBP bromodomain [1]; read-out: CREBBP IC50) of the same molecule?
A: The IC50 was 760 nM.

Q: With C[C@@H]1Nc2c(cccc2C(=O)NCCCN2CCCc3ccccc32)NC1=O [(S)-1] as the molecule, how does the IC50 (CREBBP bromodomain [1]; [5]) read?
A: The IC50 was 6870 nM.

Q: With COc1ccc2c(c1)N(CCCNC(=O)c1c(F)ccc3c1N[C@H](C)C(=O)N3)CCC2 [(R)-8] as the molecule, how does the IC50 (CREBBP bromodomain [1]; [5]) read?
A: The IC50 was 2550 nM.

Q: What does the source list for COc1ccc2c(c1)N(CCCNC(=O)c1cccc3c1N[C@H](C)C(=O)N3)CCC2 [(R)-2]?
A: ΔTm at 10 µM (PCAF): 0 °C; half time of fluorescence recovery (t1/2) compared to wild-type cells ([3]; 1, 5, 10 µM (R)-2 in presence of 2.5 μM SAHA): dose-dependently reduced; displacement of CREBBP bromodomain from chromatin (FRAP) ([3]; 1, 5, 10 µM, with 2.5 μM SAHA): can displace the CREBBP bromodomain from chromatin; TΔS of binding to CREBBP (CREBBP bromodomain [4]): -2.40 kcal/mol; ΔH of binding to CREBBP (CREBBP bromodomain [4]; error = error in fitting): -6.12 ± 0.04 kcal/mol; −TΔS of binding to BRD4 (BRD4(1)): -1.36 kcal/mol; ΔH of binding to BRD4 (BRD4(1); error = error in fitting): -6.42 ± 0.12 kcal/mol; ΔTm at 10 µM (BRPF3): 0.5 °C; ΔTm at 10 µM (BAZ2B): < 0.5 °C; ΔTm at 10 µM (LOC93349A): 0.3 °C; ΔTm at 10 µM (TIF1α): 0.7 °C; ΔTm at 10 µM (BRD9): < 1.1 °C; ΔTm at 10 µM (PB1(1)): < 0.1 °C; ΔTm at 10 µM (CREBBP): 5.4 °C

Q: Which IC50 (CREBBP bromodomain [1]; read-out: CREBBP IC50) does the source give for CC1Oc2c(cccc2C(=O)NCCN2CCc3ccccc32)NC1=O (stereo not shown) [compound 3] here?
A: Its IC50 is 77000 nM.

Q: For COc1ccc2c(c1)N(CCCNC(=O)c1cc(F)cc3c1N[C@H](C)C(=O)N3)CCC2 [(R)-7], which IC50 (CREBBP bromodomain [1]; [5]) is on record?
A: The IC50 was 1530 nM.

Q: With COc1ccc2c(c1)CCCN2CCCNC(=O)c1cccc2c1N[C@H](C)C(=O)N2 [(R)-6] as the molecule, how does the IC50 (CREBBP bromodomain [1]; [5]) read?
A: The IC50 was 1410 nM.
